Reference: a melting point compilation (Tetko et al.; mined from patent text by program, amines drawn as free bases though some values may be those of a salt)

Compound `O=C(NCCO[N+](=O)[O-])c1csc(-c2cccc([N+](=O)[O-])c2)n1` has a melting point of 149 to 152 °C. `CC(C)(CCCCCCCCCCC(C)(C)CCC(=O)O)CCC(=O)O` showed a melting point of 71 to 72 °C. Work on `CCCCCCCCCCC=Cc1cnn(C(C(=O)Nc2c(OC)cc(OC)cc2OC)c2ccccc2)c1` (centres undefined) yielded a melting point of 82 to 85 °C. In the case of `C[C@H](NC(=O)c1c(CBr)c(-c2ccccc2)nc2ccccc12)C1CCCCC1`, the melting point is reported as 182 to 184 °C. Work on `Cc1nc2n(c(=O)c1CCCl)CCCN2Cc1ccccc1` yielded a melting point of 114 °C. With `Cc1c(C)c2c(c(C)c1O)C(c1ccc(C(C)C)cc1)C1(CCN(C)CC1)O2` (centres undefined) the melting point was 114 to 117 °C. In the case of `Cc1ccc(OC2=C(Oc3ccc([N+](=O)[O-])cc3)C(F)(F)C(F)(F)C2(F)F)cc1`, the melting point is reported as 72 to 76 °C. Work on `CCCn1c(Cl)nc2ccc(I)cc2c1=O` yielded a melting point of 98 to 100 °C. With `CCC(=O)NC[C@@H]1C[C@H]1c1cccn2nc(C)cc12` (relative stereo) the melting point was 95 to 98 °C. With `N#CSc1c(-c2ncon2)nn(-c2c(Cl)cc(C(F)(F)F)cc2Cl)c1N` the melting point was 195 to 198 °C. Compound `FC(F)(F)Oc1cccc(Cn2cnc3c(-c4ccco4)ncnc32)c1` has a melting point of 133 to 135 °C. Compound `CN1C(=O)CC[C@]2(C)c3ccc(-c4nc5ccccc5s4)cc3CC[C@@H]12` has a melting point of 207 to 212 °C. `CCC(=C(c1ccccc1)c1ccc(C=CC(=O)N(CC)CC)cc1)c1ccccc1` showed a melting point of 138 to 140 °C. `CCC=CC(c1cc(F)ccc1F)S(=O)(=O)c1ccc(Cl)cc1` (centres undefined) showed a melting point of 99 to 100 °C. `O=S(=O)(Nc1cc(C(F)(F)F)ccc1-c1cc(Oc2ccc3cccnc3c2)ncn1)c1ccccc1` showed a melting point of 168 to 170 °C. `O=C(O)c1cccc(-c2nc3sccn3c2-c2ccnc(N[C@@H]3CCCN(S(=O)(=O)c4ccc(Cl)cc4)C3)n2)c1` gave a melting point of 190 to 195 °C. With `CCOC(=O)C=Cc1cnc2ccccc2c1` the melting point was 86.5 to 88 °C. `NCC(O)C1=CC2(CCCCC2)c2ccccc21` (centres undefined) gave a melting point of 117 °C. Work on `COc1ccc(-c2cc3ccccc3o2)cc1` yielded a melting point of 145 to 147 °C. `CCn1nc(C#N)cc1-c1cn(C(C)C)c2cc(NS(C)(=O)=O)ccc12` gave a melting point of 144 to 145 °C. With `Cc1nc2cccc(OCC(C)C)c2c(N)c1C(=O)O` the melting point was 204 °C. With `FC1(F)CCC(n2ncc3c(Br)cncc32)CC1` the melting point was 172 to 173 °C. Work on `CC(C)CON(Cc1ccc(F)cc1)C(=O)C1=C(O)C(=O)N(C)C1` yielded a melting point of 96 to 97 °C. With `CCCCCCCCCCCCCCCCCCNC(=O)c1cc(OC(C)=O)cc(OC(C)=O)c1` the melting point was 99 to 101 °C. Work on `Cc1cccc(C)c1N1C(=O)CS/C1=N\C(=O)Nc1ccc(-c2ncn(-c3ccc(OC(F)(F)F)cc3)n2)cc1` yielded a melting point of 190 to 196 °C. `O=C(O)CCn1c(=O)n(CCCCN2CCC(OC(c3ccccc3)c3ccccc3)CC2)c(=O)c2ccccc21` showed a melting point of 110 to 112 °C. In the case of `CN(C)CCc1[nH]c2ccccc2c1CSC(=S)N(C)C`, the melting point is reported as 125 to 128 °C. Compound `NC(=O)[C@@H](N)CN(c1ccccc1)c1ncccn1` has a melting point of 139 °C. Work on `CC(C)(C)C(=O)C(Br)C(c1ccc(Cl)cc1Cl)S(=O)(=O)c1ccc(Cl)cc1` (centres undefined) yielded a melting point of 184 to 185 °C. Compound `CC(=O)c1cccc(-c2ccc(OC3SCC(O)C(O)C3O)cn2)c1` (centres undefined) has a melting point of 159 to 163 °C. In the case of `O=Cc1ncn2cc(Br)sc12`, the melting point is reported as 200 to 201 °C. Work on `COc1ccc(-c2snnc2-c2ccccc2)cc1` yielded a melting point of 56.5 to 58 °C. In the case of `CC(C)Cn1c(CN2C(=O)c3ccccc3C2=O)c(-c2ccccc2)c2cc(OCc3ccccc3)ccc2c1=O`, the melting point is reported as 113 to 114 °C. Work on `CCOC(=O)CNC(=O)Oc1c(C)n(CCOC)ccc1=O` yielded a melting point of 134 to 135 °C. Compound `CC#CCOc1ccc(S(=O)(=O)N(C)C(CCCSc2ccc(Cl)cc2)C(=O)NO)cc1` (centres undefined) has a melting point of 144 to 146 °C. For `c1ccc2c(c1)SCCc1c-2n(CCCN2CCCCC2)c2ccccc12`, the melting point was 84 to 87 °C. Compound `O=c1c2cnc3ccccc3c2on1-c1ccccc1` has a melting point of 163 °C. With `CCOC(=O)C1CC(=O)c2cc(C(C)(C)C)cc(C(C)(C)C)c2O1` (centres undefined) the melting point was 61 to 63 °C. `CCOC(=O)C(=CNc1ccc(F)c(F)c1OCC(C)O)C(=O)OCC` (centres undefined) gave a melting point of 52 to 55 °C. Compound `N#Cc1ccc(CN2CCc3ccc(C(=O)CCCC4CCN(Cc5ccccc5Cl)CC4)cc3CC2)cc1` has a melting point of 118 to 119 °C. For `Cc1nnc2n1-c1ccc(C#CCN3C(=O)CN(C)C(=O)c4ccccc43)cc1C(c1ccccc1F)=NC2`, the melting point was 179 to 182 °C. `COc1ccc(Cl)cc1CC1CNC(=O)CN(S(=O)(=O)c2ccc(Cl)cc2)C1=O` (centres undefined) showed a melting point of 110 to 112 °C. With `CC(C)(CCCC(=O)O)c1ccc(O)cc1` the melting point was 94 to 96 °C. For `Cc1ccc(N2N=C3c4cc(C(C)O)sc4CCC3CC2=O)cc1` (centres undefined), the melting point was 129 to 145 °C. With `Cc1cccc2c1NC(=O)C(CCCN1CCN(c3cccc(F)c3)CC1)S2` (centres undefined) the melting point was 132 to 134 °C. For `Cn1cc(C2=C(c3cn(CCCNc4ccc([N+](=O)[O-])cn4)c4ccccc34)C(=O)NC2=O)c2ccccc21`, the melting point was 245 to 247 °C. For `O=C(COc1ccccc1)NC1C(=O)NC1SCC(=O)C1CCCS1` (mixture of isomers), the melting point was 123 °C. `CCCCCCCCCCCCCCCCCCNC(=O)OCCN1CCCC1` showed a melting point of 57 °C. Compound `Cn1cc(C(O)CO)c2c3c(c(-c4ccccc4Cl)cc21)C(=O)NC3=O` (centres undefined) has a melting point of 179 to 183 °C. With `c1ccc(CCc2nc3cccc4c3n2CCC4)cc1` the melting point was 107 to 108 °C. For `NC1=NN(c2cccc(C(F)(F)F)c2)CC1`, the melting point was 104 to 107 °C. Compound `CC1(C)C(C=CC(=O)Cl)C1C(=O)OC(C#N)c1cccc(Oc2ccccc2)c1` (centres undefined) has a melting point of 86 °C. With `COc1ccc(/C=C/C(=O)Nc2ccccc2)cc1OC` the melting point was 131 to 133 °C. Compound `Cc1ccc(N2CCN(Cc3ccc4c(c3)NC(=O)CO4)CC2)cc1C` has a melting point of 148 to 153 °C. With `O=C(O)c1cccc(Cc2c[nH]cn2)c1O` the melting point was 245 to 252 °C. In the case of `CC(=O)N(CCCCN1C(=O)c2ccccc2C1=O)c1ccccc1`, the melting point is reported as 83 to 84 °C. For `Cc1c2c(nc3ccccc13)C(=Cc1ccc(Cl)c(Cl)c1)CC2`, the melting point was 187 to 188 °C. For `O=C(CCC(=O)N1CCCCC1)c1ccccc1`, the melting point was 52 to 54 °C. In the case of `Cc1ccc(OCc2sccc2S(=O)(=O)Nc2onc(C)c2Br)cc1`, the melting point is reported as 128 to 130 °C. Compound `O=C1C(c2ccccc2)=C(c2ccccc2)C(=O)N1Cc1ccccc1` has a melting point of 123 to 124 °C. `COC(=O)c1oc2ccc(OC)cc2c1OCc1ccccc1` showed a melting point of 81 to 84 °C. With `CCOCc1nc2c(N)nc3cc(Br)cnc3c2n1CC(C)(C)F` the melting point was 221 to 222 °C. `N#Cc1ncccc1CCc1ccc(F)cc1` gave a melting point of 48 to 49 °C. Work on `CC(O)(CSc1ccc(F)cc1)C(=O)O` (centres undefined) yielded a melting point of 73 to 75 °C. `CC(=O)c1sc(Nc2cc[nH]n2)nc1C` gave a melting point of 224 to 227 °C. In the case of `Cc1ccc(-c2ncc(N(C)CCCCO)nc2-c2ccc(C)cc2)cc1`, the melting point is reported as 94 to 96 °C. With `CC(C)(C)OC(=O)N1CCc2ccc(NS(C)(=O)=O)cc2CC1` the melting point was 153 to 154 °C. `CCCc1nc(NC(=O)N(C)C)nc(N2CCOCC2)n1` showed a melting point of 110 to 111 °C. In the case of `CC(C)c1cn2ccccc2c1S(=O)(=O)c1ccc(OCCCN2CCC(c3ccccc3)CC2)cc1`, the melting point is reported as 79 to 80 °C. Work on `CNc1cccc(S(=O)(=O)c2ccc(N)cc2)c1` yielded a melting point of 125 to 126 °C. With `COc1cc(C)c(C=CC(C)=CC=C(C)C(=O)O)cc1C` the melting point was 222 to 224 °C. `O=P(O)(O)C(O)(CCc1ccc(Cl)c(Cl)c1)P(=O)(O)O` gave a melting point of 187 °C. For `CC(C)(C)c1ccc2c(c1)C(CO)c1cc(C(C)(C)C)ccc1-2`, the melting point was 102 to 103 °C. For `CSc1ncc2cc(-c3c(Cl)cccc3Cl)c(=N)n(C)c2n1`, the melting point was 198 to 200 °C. Compound `CCc1c(Oc2ncc(C(F)(F)F)cc2Cl)nn(C(=O)NC)c1C` has a melting point of 84 to 86 °C. Compound `COc1cccc(-c2cc(NC(=O)CC(=O)C(F)(F)F)[nH]n2)c1` has a melting point of 107 to 110 °C. For `CCOC(=O)C1=C(N)NC(N)=C(C(=O)OCC)C1c1ccccc1C`, the melting point was 158 °C. In the case of `O=C1c2ccc(N=C(c3ccccc3)N3CCCCC3)cc2C(=O)c2ccc(N=C(c3ccccc3)N3CCCCC3)cc21`, the melting point is reported as 264 to 266 °C. Compound `CCOC(=O)C1(C(=O)NCc2ccccc2)CC(=O)N(Cc2ccccc2)C1` (centres undefined) has a melting point of 63 to 65 °C. Work on `O=C(c1ccccc1)c1ccc(OCCc2c[nH]cn2)cc1` yielded a melting point of 193 to 194 °C. `CCOC(=O)c1[nH]c2ccc(Cl)cc2c1-c1ccccc1` showed a melting point of 171 to 172 °C. With `O=C(c1ccccc1)c1cc(-c2ccncc2)sc1-c1ccncc1` the melting point was 168 to 170 °C. `COCc1cnc2c(NC(=O)c3c(Cl)cccc3Cl)cc(C)cc2c1-n1ccnc1` gave a melting point of 99 to 101 °C. `Cn1ncc(C(=O)C2CC2)c1S(N)(=O)=O` gave a melting point of 125 to 127 °C. `CSc1cc(C)nc(SC)c1NC(=O)CCCCCCCCSc1nc2ccccc2o1` showed a melting point of 123 to 124 °C. With `CCOC(=O)C=C(N)C(C)(C)OC(N)=O` the melting point was 109 to 111 °C. For `CC(=O)Nc1ccc(C#CCCN2CC=C(c3ccccc3)CC2)cn1`, the melting point was 169 to 170 °C. For `CC(C)CCc1c(C(C)C)nc(C(C)C)c(CO)c1-c1ccc(F)cc1`, the melting point was 43 to 45 °C. `O=C1NC(C(=O)N2CCN3C(=O)OC(c4ccccc4)(c4ccccc4)C3C2)c2ccccc21` (centres undefined) showed a melting point of 227 to 228 °C. For `C[C@H](C(=O)O)n1nc(O)c2[nH]c3cc(Cl)ccc3c(=O)c2c1=O`, the melting point was > 275 °C. `Cc1c(C)c(N)c2c(c1C)C(=O)C(C)(C)O2` gave a melting point of 141 to 142 °C. With `O=S(=O)(c1ccc(Cl)cc1)N1CCCC1c1ccc(F)c(F)c1` (racemic) the melting point was 121 °C. In the case of `Cc1cc2c3c(ccn2n1)CCC3CCNC(=O)C1CC1` (centres undefined), the melting point is reported as 112 to 113 °C. Compound `CCOC(=O)c1ccc(CNc2ccncc2[N+](=O)[O-])cc1` has a melting point of 166 to 168 °C. Work on `COC(=O)CC1=C(C)Cc2cc(F)c(OC)cc21` yielded a melting point of 61 to 62 °C. With `CC(C)(C)OC(=O)N[C@@H](CCC(=O)OCc1ccccc1)C(=O)OCc1ccccc1` the melting point was 73 to 76 °C. `CC(C)CCN1C(=O)C(NC(=O)Nc2ccccc2)C(=O)N(CC23CC4CC(CC(C4)C2)C3)c2ccccc21` (centres undefined) showed a melting point of 156 to 157 °C. Compound `CCCCCS(=O)(=O)NC(=O)/C=C/c1ccc(OCCOC)cc1Oc1ncc(NC(=O)OC(C)(C)C)cc1C` has a melting point of 150 °C. Compound `COc1cc(Nc2ncnc3cc4cc(OCc5ccccc5)c(OC)cc4cc23)c(Cl)cc1Cl` has a melting point of 275 to 280 °C.
